Read-outs that look alike come from different tables or passages of the source.
System: nuclear p27 in LNCaP-S14 cells
Type: cell-based, human
[1] = primary screening, nuclear p27 in LNCaP-S14 cells
[2] = primary screening, S = strong, M = medium, W = weak by Z score

COc1cc(OC)c(CN2CCC(NC(=O)c3ccc(-n4nc(C(C)(C)C)cc4C(C)(C)C)cc3)C2)c(OC)c1 (stereo not shown) [567D12]
Z score (aver) [1]: 8.89
Clasf [2]: S (strong (Z score > 5))

O=C(NC1=C(Cl)C(=O)c2ccccc2C1=O)OC1CCCCCCC1 [567K05]
Z score (aver) [1]: 2.74
Clasf [2]: W (weak (Z score 2-3)

O=C(OCn1ncc(Cl)c(Cl)c1=O)c1cccc(C(F)(F)F)c1 [567M11]
Z score (aver) [1]: 4.23
Clasf [2]: M (medium (Z score 3-5))

O=C(OCn1ncc(Cl)c(Cl)c1=O)c1ccc(C(F)(F)F)cc1 [567M13]
Clasf [2]: S (strong (Z score > 5))

O=C(NCCCn1ccnc1)OCc1ccc(C#Cc2ccccc2)s1 [567M14]
Z score (aver) [1]: 2.83
Clasf [2]: W (weak (Z score 2-3)

COc1ccc2[nH]cc(CCNC(=O)OCC3CC4CCC3C4)c2c1 (stereo not shown) [567M20]
Z score (aver) [1]: 4.13
Clasf [2]: M (medium (Z score 3-5))

O=C1c2ccccc2C(=O)N1Oc1ccc([N+](=O)[O-])c([N+](=O)[O-])c1 [669F07]
Z score (aver) [1]: 3.84
Clasf [2]: M (medium (Z score 3-5))

Cc1ccc(C(=O)C2C(c3ccccc3I)C(C#N)(C#N)C3c4ccccc4C=CN23)cc1 (stereo not shown) [669K08]
Z score (aver) [1]: 2.72
Clasf [2]: W (weak (Z score 2-3)

CC(=O)C1C(c2cccc(I)c2)C(C#N)(C#N)C2C=Cc3ccccc3N12 (stereo not shown) [669K10]
Z score (aver) [1]: 3.55
Clasf [2]: M (medium (Z score 3-5))

N#CC1(C#N)C(c2cccc(I)c2)C(C(N)=O)N2C=Cc3ccccc3C21 (stereo not shown) [669M10]
Z score (aver) [1]: 6.90
Clasf [2]: S (strong (Z score > 5))

N#CC1(C#N)C(c2ccccc2I)C(C(=O)C23CC4CC(CC(C4)C2)C3)N2c3ccccc3C=CC21 (stereo not shown) [669O10]
Z score (aver) [1]: 6.23
Clasf [2]: S (strong (Z score > 5))

Cc1ccc(C)n1-c1ccccc1CNS(=O)(=O)c1ccc(Cl)cc1 [669P04]
Z score (aver) [1]: 5.53
Clasf [2]: S (strong (Z score > 5))

COc1ccc(C2=NN3C(C2)c2cc(Cl)ccc2OC32CCCC2)cc1 (stereo not shown) [1157E14]
Z score (aver) [1]: 4.67
Clasf [2]: M (medium (Z score 3-5))

N#Cc1cc2c(nc1SCC(=O)Nc1ccccc1F)CCCCC2 [1158J04]
Z score (aver) [1]: 2.92
Clasf [2]: W (weak (Z score 2-3)

COc1ccccc1N1CCN(C(=O)CSc2nc3ccccc3c(=O)n2CCC(=O)NC2CCCCC2)CC1 [1158L12]
Z score (aver) [1]: 2.46
Clasf [2]: W (weak (Z score 2-3)

CCOC(=O)C1=C(C)N=c2sc(=Cc3ccc(N(CC)CC)o3)c(=O)n2C1c1ccccc1OC (stereo not shown) [1158M07]
Z score (aver) [1]: 11.51
Clasf [2]: S (strong (Z score > 5))

COc1ccccc1C1Oc2ccc(Cl)cc2C2CC(c3ccc(Cl)cc3)=NN21 (stereo not shown) [1158M11]
Z score (aver) [1]: 4.34
Clasf [2]: M (medium (Z score 3-5))

C=CCN1C(=O)CC(C(=O)Nc2ccc(OC)cc2)SC1=Nc1ccc(Cl)cc1 (stereo not shown) [1158M12]
Z score (aver) [1]: 2.69
Clasf [2]: W (weak (Z score 2-3)

CCOC(=O)C1=C(C)N=c2sc(=Cc3ccc(N4CCOCC4)o3)c(=O)n2C1c1ccc2c(c1)OCO2 (stereo not shown) [1158O07]
Z score (aver) [1]: 8.87
Clasf [2]: S (strong (Z score > 5))

CC(=O)C1=C(C)NC(SCC(=O)c2ccc(Cl)cc2Cl)=C(C#N)C1c1sccc1C (stereo not shown) [1159B21]
Z score (aver) [1]: 2.34
Clasf [2]: W (weak (Z score 2-3)

O=[N+]([O-])C(=C(Cl)Sc1ccccc1)C(Cl)=C(Cl)Cl [1159C10]
Z score (aver) [1]: 2.72
Clasf [2]: W (weak (Z score 2-3)

COc1ccc2c(c1)OC1(C=C2)N(C)c2ccccc2C1(C)C (stereo not shown) [1159E12]
Z score (aver) [1]: 12.29
Clasf [2]: S (strong (Z score > 5))

COC(=O)C1=C(N)n2c(sc(=Cc3ccc(Cl)cc3)c2=O)=C(C(=O)OC)C1c1ccc(Cl)cc1 (stereo not shown) [1159F17]
Z score (aver) [1]: 2.15
Clasf [2]: W (weak (Z score 2-3)

N#Cc1c(N)nc(SCC(=O)NCc2ccccc2)c(C#N)c1-c1cccs1 [1159G21]
Z score (aver) [1]: 3.48
Clasf [2]: M (medium (Z score 3-5))

Cc1ccc(-c2cn3c([n+]2-c2ccc(C)cc2)CCCCC3)cc1 [1159I14]
Z score (aver) [1]: 2.49
Clasf [2]: W (weak (Z score 2-3)

COc1ccc(Br)cc1C1CC(=O)Nc2c1ccc1ccccc21 (stereo not shown) [1159L15]
Z score (aver) [1]: 2.32
Clasf [2]: W (weak (Z score 2-3)

COc1ccc(-c2nc3c4ccccc4c4ccccc4c3[nH]2)c(OC)c1 [1160C13]
Z score (aver) [1]: 2.90
Clasf [2]: W (weak (Z score 2-3)

O=C1C2C3c4ccccc4C(CO)(c4ccccc43)C2C(=O)N1c1ccc(Br)cc1 (stereo not shown) [1160E22]
Z score (aver) [1]: 2.44
Clasf [2]: W (weak (Z score 2-3)

COc1cc(C(=O)N2c3ccc(C)cc3-c3c(ssc3=S)C2(C)C)cc(OC)c1OC [1160F11]
Z score (aver) [1]: 3.09
Clasf [2]: M (medium (Z score 3-5))

CCNC(=O)C=C1NC(C)(C)Cc2c1ccc1ccccc21 [1160G14]
Z score (aver) [1]: 2.31
Clasf [2]: W (weak (Z score 2-3)

Sc1nnc2c3ccccc3n(CCc3ccccc3)c2n1 [1160H09]
Z score (aver) [1]: 2.51
Clasf [2]: W (weak (Z score 2-3)

CN(C)c1ccc(C=CC=CC23NC(=O)CN2c2ccccc2C3(C)C)cc1 (stereo not shown) [1160J08]
Z score (aver) [1]: 4.94
Clasf [2]: M (medium (Z score 3-5))

N#CC1=C(N)C(C#N)(C#N)C(c2ccc(Br)cc2)C2CN(Cc3ccccc3)CC=C12 (stereo not shown) [1160K18]
Z score (aver) [1]: 2.90
Clasf [2]: W (weak (Z score 2-3)

COc1ccccc1C(=O)N1c2ccccc2Sc2ccccc21 [1160M09]
Z score (aver) [1]: 2.71
Clasf [2]: W (weak (Z score 2-3)

Cc1ccc(C)c2c1-c1ccccc1S(=O)(=O)N2S(=O)(=O)c1ccccc1 [1160M11]
Z score (aver) [1]: 2.11
Clasf [2]: W (weak (Z score 2-3)

Cc1nc(NCCc2c[nH]c3ccccc23)cc(-c2ccc(F)cc2)n1 [1306E02]
Z score (aver) [1]: 3.02
Clasf [2]: M (medium (Z score 3-5))

CCN(CC)c1cc(-c2ccc(F)cc2)nc(-c2ccncc2)n1 [1306I06]
Z score (aver) [1]: 3.11
Clasf [2]: M (medium (Z score 3-5))

Fc1ccc(-c2cc(NCc3ccc(Cl)cc3)nc(-c3ccncc3)n2)cc1 [1306I08]
Z score (aver) [1]: 3.44
Clasf [2]: M (medium (Z score 3-5))

COC(=O)c1c(-c2c(Cl)cccc2Cl)noc1C=CN(C)C [1306I21]
Z score (aver) [1]: 4.49
Clasf [2]: M (medium (Z score 3-5))

Fc1ccc(-c2cc(NC3CC3)nc(-c3ccncc3)n2)cc1 [1306K08]
Z score (aver) [1]: 3.56
Clasf [2]: M (medium (Z score 3-5))

CCCN1CCC(N(C(=O)c2cccc(C(F)(F)F)c2)c2ccc3[nH]c(C(C)(C)C)cc3c2)CC1 [1306L20]
Z score (aver) [1]: 6.78
Clasf [2]: S (strong (Z score > 5))

CCC1(O)C(=O)OCc2c1cc1n(c2=O)Cc2cc3c(O)cccc3nc2-1 (stereo not shown) [1361B06]
Z score (aver) [1]: 7.99
Clasf [2]: S (strong (Z score > 5))

C=CCNC1=C2CC(C)CC(OC)C(O)C(C)C=C(C)C(OC(N)=O)C(OC)C=CC=C(C)C(=O)NC(=CC1=O)C2=O (stereo not shown) [1361H16]
Z score (aver) [1]: 3.92
Clasf [2]: M (medium (Z score 3-5))

COC1=CC(C)=CC(C)C(O)C(C)CC(C)=CC=CC(OC)C(C(C)C(O)C(C)C2CC(O)C(C)C(C(C)C)O2)OC1=O (stereo not shown) [1361J12]
Z score (aver) [1]: 4.65
Clasf [2]: M (medium (Z score 3-5))

CC=C(C)C(=O)OC1C(C)=C2C(C1OC(=O)CCCCCCC)C(C)(OC(C)=O)CC(OC(=O)CCC)C1(O)C2OC(=O)C1(C)O (stereo not shown) [1361L03]
Z score (aver) [1]: 8.27
Clasf [2]: S (strong (Z score > 5))

CNc1ccc2oc(CC3OC4(CCC3C)OC(C(C)C(=O)c3ccc[nH]3)C(C)CC4C)nc2c1C(=O)O (stereo not shown) [1361O18]
Z score (aver) [1]: 8.06
Clasf [2]: S (strong (Z score > 5))

N#CC(C#N)=NNc1ccc(OC(F)(F)F)cc1 [1362E11]
Clasf: S (key: S: strong (Z score > 5); M: medium (Z score 3-5); W: weak (Z score 2-3)
Z score (aver): 6.18

CC1OC(=O)C(C(C)C)NC(=O)C(C(C)C)OC(=O)C(C(C)C)NC(=O)C(C)OC(=O)C(C(C)C)NC(=O)C(C(C)C)OC(=O)C(C(C)C)NC(=O)C(C)OC(=O)C(C(C)C)NC(=O)C(C(C)C)OC(=O)C(C(C)C)NC1=O (stereo not shown) [1362N07]
Z score (aver) [1]: 7.42
Clasf [2]: S (strong (Z score > 5))

COCC1OC(=O)c2coc3c2C1(C)C1=C(C3=O)C2CCC(=O)C2(C)CC1OC(C)=O (stereo not shown) [1362N13]
Z score (aver) [1]: 6.65
Clasf [2]: S (strong (Z score > 5))

CCOC(=O)c1cc(C#N)c(Sc2ccc(C)cc2)nc1C(F)(F)F [1520B07]
Z score (aver) [1]: 5.43
Clasf [2]: S (strong (Z score > 5))

CC1=NC(=Cc2sccc2C)C(=O)O1 [1520B10]
Z score (aver) [1]: 2.27
Clasf [2]: W (weak (Z score 2-3)

COc1ccc(OCC(=N)NC(=S)Nc2ccc(Cl)cc2)cc1 [1520B19]
Z score (aver) [1]: 2.51
Clasf [2]: W (weak (Z score 2-3)

O=C(CSC1=NNC(c2ccccn2)S1)c1cccc(F)c1 (stereo not shown) [1520D17]
Z score (aver) [1]: 4.91
Clasf [2]: M (medium (Z score 3-5))

Cc1cc(Br)ccc1NC(=O)CCCc1c[nH]c2ccccc12 [1520E21]
Z score (aver) [1]: 4.74
Clasf [2]: M (medium (Z score 3-5))

COc1ccc(SC(=O)c2cc(C)n(Cc3c(Cl)cccc3Cl)n2)cc1 [1520J06]
Z score (aver) [1]: 3.39
Clasf [2]: M (medium (Z score 3-5))

CCCNC(=O)Nc1nc(Nc2ccc(Cl)cc2)n[nH]1 [1520J18]
Z score (aver) [1]: 3.47
Clasf [2]: M (medium (Z score 3-5))

Cc1onc(-c2c(Cl)cccc2Cl)c1-c1csc(CCn2c(=O)oc3ccccc32)n1 [1520L12]
Z score (aver) [1]: 2.13
Clasf [2]: W (weak (Z score 2-3)

O=c1c(C(F)(F)F)cccn1CCc1nc(-c2ccccc2)cs1 [1520N01]
Z score (aver) [1]: 3.32
Clasf [2]: M (medium (Z score 3-5))

Cc1cc(C(=O)Sc2cccc(Br)c2)nn1C(C)(C)C [1520N02]
Z score (aver) [1]: 5.16
Clasf [2]: S (strong (Z score > 5))

CC(C)c1ccc(NC(=O)N2CCCN(CCOc3ccccc3)CC2)cc1 [1520P16]
Z score (aver) [1]: 2.72
Clasf [2]: W (weak (Z score 2-3)

C=C(CC)C(=O)c1ccc(OCC(=O)O)c(Cl)c1Cl [1568D20]
Z score (aver) [1]: 3.20
Clasf [2]: M (medium (Z score 3-5))

From PMC3025922 (BMC Biology, 2010)
